Assay results: patent US20230117034A1, “PYRAZOLOTRIAZINES” (Bayer Aktiengesellschaft, priority 2019, published 2023)

Tests used:
CDK12/CycK = CDK12/CycK (Homo sapiens, UniProt Q9NYV4); assay: CDK12/CycK high ATP kinase assay (TR-FRET, 2 mM ATP); assay type: biochemical; details: 2 mM ATP (high ATP); median; read-out: CDK12/CyclinK, 2 mM ATP (high ATP), IC50-[mol/l] (median)
Method in brief: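 Read-out is TR-FRET (Eu-anti-rabbit IgG, anti-phospho-c-Myc Ser62 antibody, streptavidin-XL665) after EDTA stop. Reaction ran 60 min at 22 °C using 1 µM biotin-peptide and high ATP (2 mM) with roughly 0.75 nM recombinant CDK12/CycK, after 15 min compound pre-binding; normalised emission ratios yield IC50.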

[1] = tested on: MDA-MB-231, human breast cancer cells; assay: Proliferation assay MDA-MB-231 (crystal violet, 4 days); assay type: cell-based; details: Homo sapiens, MDA-MB-231, 96 h, MDA-MB-231 cells, median, read-out: Prolif-MDA MB-231, IC50-[mol/l] (median)
Method in brief: (§1)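 Crystal violet proliferation read-out after 4 days of compound exposure (0.01-10 µmol/L; solvent 0.1% DMSO). Extinction at 595 nm, set between zero-point (0%) and vehicle (100%), fitted with 4 parameters to give IC50.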

[2] = tested on: CAL-120, human breast adenocarcinoma cells; assay: Proliferation assay CAL-120 (crystal violet, 4 days); assay type: cell-based; details: Homo sapiens, CAL-120, 96 h, CAL-120 cells, median, read-out: Prolif-CAL-120, IC50-[mol/l] (median)
Method in brief: as §1

CDK12/CycK, sequence (Q9NYV4 with tags, fused parts or gaps): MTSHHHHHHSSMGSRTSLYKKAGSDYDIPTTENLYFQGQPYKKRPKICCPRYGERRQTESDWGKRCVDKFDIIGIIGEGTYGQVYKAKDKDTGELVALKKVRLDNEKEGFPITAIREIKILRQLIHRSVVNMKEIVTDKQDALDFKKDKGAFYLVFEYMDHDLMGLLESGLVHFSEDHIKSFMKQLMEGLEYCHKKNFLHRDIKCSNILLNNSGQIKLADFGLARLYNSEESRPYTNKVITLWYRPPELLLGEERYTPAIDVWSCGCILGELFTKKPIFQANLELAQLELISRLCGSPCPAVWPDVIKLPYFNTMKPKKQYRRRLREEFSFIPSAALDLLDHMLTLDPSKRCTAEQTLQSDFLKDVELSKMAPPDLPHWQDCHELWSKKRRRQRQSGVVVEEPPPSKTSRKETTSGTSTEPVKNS
CDK12/CycK, sequence (O75909 1-300 partner limits assumed): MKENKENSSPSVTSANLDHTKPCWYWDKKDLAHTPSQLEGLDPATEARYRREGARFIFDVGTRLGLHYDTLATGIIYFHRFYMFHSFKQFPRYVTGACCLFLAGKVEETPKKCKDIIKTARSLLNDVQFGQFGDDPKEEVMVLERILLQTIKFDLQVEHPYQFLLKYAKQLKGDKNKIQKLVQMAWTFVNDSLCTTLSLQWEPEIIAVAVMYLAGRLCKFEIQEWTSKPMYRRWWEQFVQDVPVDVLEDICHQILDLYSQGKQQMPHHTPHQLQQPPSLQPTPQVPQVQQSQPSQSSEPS

| IC50 (CDK12/CycK) [nM] | IC50 [1] [nM] | IC50 [2] [nM] | Compound |
| --- | --- | --- | --- |
| 5970 | 86.4 | – | CC(C)c1cnn2c(NCc3nc4ccccc4[nH]3)nc(N3CCOCC3)nc12 [Example 1, N-[(1H-benzimidazol-2-yl)methyl]-2-(morpholin-4-yl)-8-(propan-2-yl)pyrazolo[1,5-a][1,3,5]triazin-4-amine] |
| – | 373 | – | CC(C)c1cnn2c(NCc3nc4ccccc4[nH]3)nc(N3CCOC(C)(C)C3)nc12 [Example 12, N-[(1H-benzimidazol-2-yl)methyl]-2-(2,2-dimethylmorpholin-4-yl)-8-(propan-2-yl)pyrazolo[1,5-a][1,3,5]triazin-4-amine] |
| 2090 | – | 107 | Brc1cnn2c(NCc3ncc(-c4cccnc4)[nH]3)nc(N3CCOCC3)nc12 [Example 84, 8-bromo-2-(morpholin-4-yl)-N-{[5-(pyridin-3-yl)-1H-imidazol-2-yl]methyl}pyrazolo[1,5-a][1,3,5]triazin-4-amine] |
| 6330 | – | 26.3 | Cc1ccccc1-c1cnc(CNc2nc(N3CCOCC3)nc3c(Br)cnn23)[nH]1 [Example 85, 8-bromo-N-{[5-(2-methylphenyl)-1H-imidazol-2-yl]methyl}-2-(morpholin-4-yl)pyrazolo[1,5-a][1,3,5]triazin-4-amine] |
| 1890 | – | 14.4 | Fc1ccccc1-c1cnc(CNc2nc(N3CCOCC3)nc3c(Br)cnn23)[nH]1 [Example 86, 8-bromo-N-{[5-(2-fluorophenyl)-1H-imidazol-2-yl]methyl}-2-(morpholin-4-yl)pyrazolo[1,5-a][1,3,5]triazin-4-amine] |
| 2590 | – | 6.58 | COc1ccccc1-c1cnc(CNc2nc(N3CCOCC3)nc3c(Br)cnn23)[nH]1 [Example 87, 8-bromo-N-{[5-(2-methoxyphenyl)-1H-imidazol-2-yl]methyl}-2-(morpholin-4-yl)pyrazolo[1,5-a][1,3,5]triazin-4-amine] |
| 1360 | – | 14.2 | FC(F)(F)c1ccccc1-c1cnc(CNc2nc(N3CCOCC3)nc3c(Br)cnn23)[nH]1 [Example 88, 8-bromo-2-(morpholin-4-yl)-N-({5-[2-(trifluoromethyl)phenyl]-1H-imidazol-2-yl}methyl)pyrazolo[1,5-a][1,3,5]triazin-4-amine] |
| 10700 | – | 32.9 | FC(F)(F)Oc1ccccc1-c1cnc(CNc2nc(N3CCOCC3)nc3c(Br)cnn23)[nH]1 [Example 89, 8-bromo-2-(morpholin-4-yl)-N-({5-[2-(trifluoromethoxy)phenyl]-1H-imidazol-2-yl}methyl)pyrazolo[1,5-a][1,3,5]triazin-4-amine] |
| 4420 | – | 17.4 | Brc1cnn2c(NCc3ncc(-c4ccccn4)[nH]3)nc(N3CCOCC3)nc12 [Example 90, 8-bromo-2-(morpholin-4-yl)-N-{[5-(pyridin-2-yl)-1H-imidazol-2-yl]methyl}pyrazolo[1,5-a][1,3,5]triazin-4-amine] |
| > 57100 | – | 105 | Fc1cccc(-c2cnn3c(NCc4nc5ccccc5[nH]4)nc(N4CCOCC4)nc23)c1 [Example 91, N-[(1H-benzimidazol-2-yl)methyl]-8-(3-fluorophenyl)-2-(morpholin-4-yl)pyrazolo[1,5-a][1,3,5]triazin-4-amine] |
| 3250 | – | 12 | c1ccc2[nH]c(CNc3nc(N4CCOCC4)nc4c(C5CC5)cnn34)nc2c1 [Example 92, N-[(1H-benzimidazol-2-yl)methyl]-8-cyclopropyl-2-(morpholin-4-yl)pyrazolo[1,5-a][1,3,5]triazin-4-amine] |
| 2700 | – | 100 | c1ccc(-c2nnc(CNc3nc(N4CCOCC4)nc4c(C5CC5)cnn34)[nH]2)cc1 [Example 93, 8-cyclopropyl-2-(morpholin-4-yl)-N-[(5-phenyl-4H-1,2,4-triazol-3-yl)methyl]pyrazolo[1,5-a][1,3,5]triazin-4-amine] |
| – | 295 | 131 | O[C@@H]1CCN(c2nc(NCc3nc4ccccc4[nH]3)n3ncc(Br)c3n2)C1 [Example 202, (3R)-1-(4-{[(1H-benzimidazol-2-yl)methyl]amino}-8-bromopyrazolo[1,5-a][1,3,5]triazin-2-yl)pyrrolidin-3-ol] |
| – | 5.94 | 4.44 | CN1CCN(c2nc(NCc3nc4cc(Cl)c(Cl)cc4[nH]3)n3ncc(C4CC4)c3n2)CC1 [Example 305, 8-cyclopropyl-N-[(5,6-dichloro-1H-benzimidazol-2-yl)methyl]-2-(4-methylpiperazin-1-yl)pyrazolo[1,5-a][1,3,5]triazin-4-amine] |
| – | 15.6 | 9.52 | CN1CCN(c2nc(NCc3nc4cc(C(F)(F)F)ccc4[nH]3)n3ncc(C4CC4)c3n2)CC1 [Example 313, 8-cyclopropyl-2-(4-methylpiperazin-1-yl)-N-{[5-(trifluoromethyl)-1H-benzimidazol-2-yl]methyl}pyrazolo[1,5-a][1,3,5]triazin-4-amine] |
| – | 20.1 | 6.88 | Fc1ccc2[nH]c(CNc3nc(N4CCOCC4)nc4c(-c5cnn(C(F)F)c5)cnn34)nc2c1F [Example 422, N-[(4,5-difluoro-1H-benzimidazol-2-yl)methyl]-8-[1-(difluoromethyl)-1H-pyrazol-4-yl]-2-(morpholin-4-yl)pyrazolo[1,5-a][1,3,5]triazin-4-amine] |
| – | 4.25 | 1.76 | CCc1cnn2c(NCc3nc4c(F)c(F)ccc4[nH]3)nc(N3CCN(C)CC3)nc12.O=CO [Example 435, formic acid N-[(4,5-difluoro-1H-benzimidazol-2-yl)methyl]-8-ethyl-2-(4-methylpiperazin-1-yl)pyrazolo[1,5-a][1,3,5]triazin-4-amine] |
